In patent publication US10934274B2, “Quinoline derivatives as TAM RTK inhibitors” (Qurient Co., Ltd., priority 2015, dated 2021):

How the values were obtained:
Met = target: T1, Met (Homo sapiens, UniProt P08581); assay: LanthaScreen Eu kinase binding assay, Met; details: Tracer 236, read-out: cMet kinase binding activity (Kd)
T1 construct: purchased Life Technologies
Procedure: (§1) LanthaScreen® Eu Kinase Binding assays were conducted at Life Technologies using the manufacturer's specifications for each kinase indicated.
(§2) Briefly, the principle behind this assay is based upon the binding and displacement of an Alexa Fluor 647-labeled tracer to the kinase of interest. Binding of the tracer to the kinase is detected using an EU-labeled anti-tag antibody. Simultaneous binding of both the tracer and antibody to the kinase gives rise to a FRET-signal. Binding of an inhibitor to the kinase competes for binding with the tracer, resulting in a loss of FRET-signal.
(§3) Binding Assay Protocol for AXL, Mer, Tyro3 and Met
(§4) A given compound was diluted in DMSO to make a stock compound solution. The stock compound solution was serially diluted over eight steps in DMSO. Each diluted compound solution in DMSO was diluted in kinase buffer. Afterwards four kinds of working solution were prepared. First, Tracer-Working solution consists of Tracer 236 and Kinase Buffer. Second, Axl, Mer, Tyro3 or Met/anti-GST-AB-Working solution contained one of the kinases Axl, Mer, Tyro3, Met or anti-GST-AB (=anti glutathione-S-transferase antibody) in Kinase Buffer. Third, anti-GST-AB-Working solution was made with anti-GST-AB and Kinase Buffer. Last, in the DMSO-Working solution DMSO was added to Kinase Buffer to a final concentration to 3%. Each of the four kinds of working solutions were separately added to the assay plate and then incubated for 1 h at room temperature. After incubation, the assay plate was measured with respect to the FRET-Signal with the EnVision (Perkin Elmer) using the program LanthaHTRF-Assay. Data evaluation was done in the Quattro Workflow software.
(§5) Table 1 summarises the results obtained for AXL, Mer and Tyro3-kinases binding assays; table 2 summarises the results obtained for the Met kinase binding assay.

Axl = target: T2, Axl (Homo sapiens, UniProt P30530); assay: LanthaScreen Eu kinase binding assay, Axl; details: Tracer 236
T2 construct: purchased Life Technologies
T2 sequence (P30530 26-894): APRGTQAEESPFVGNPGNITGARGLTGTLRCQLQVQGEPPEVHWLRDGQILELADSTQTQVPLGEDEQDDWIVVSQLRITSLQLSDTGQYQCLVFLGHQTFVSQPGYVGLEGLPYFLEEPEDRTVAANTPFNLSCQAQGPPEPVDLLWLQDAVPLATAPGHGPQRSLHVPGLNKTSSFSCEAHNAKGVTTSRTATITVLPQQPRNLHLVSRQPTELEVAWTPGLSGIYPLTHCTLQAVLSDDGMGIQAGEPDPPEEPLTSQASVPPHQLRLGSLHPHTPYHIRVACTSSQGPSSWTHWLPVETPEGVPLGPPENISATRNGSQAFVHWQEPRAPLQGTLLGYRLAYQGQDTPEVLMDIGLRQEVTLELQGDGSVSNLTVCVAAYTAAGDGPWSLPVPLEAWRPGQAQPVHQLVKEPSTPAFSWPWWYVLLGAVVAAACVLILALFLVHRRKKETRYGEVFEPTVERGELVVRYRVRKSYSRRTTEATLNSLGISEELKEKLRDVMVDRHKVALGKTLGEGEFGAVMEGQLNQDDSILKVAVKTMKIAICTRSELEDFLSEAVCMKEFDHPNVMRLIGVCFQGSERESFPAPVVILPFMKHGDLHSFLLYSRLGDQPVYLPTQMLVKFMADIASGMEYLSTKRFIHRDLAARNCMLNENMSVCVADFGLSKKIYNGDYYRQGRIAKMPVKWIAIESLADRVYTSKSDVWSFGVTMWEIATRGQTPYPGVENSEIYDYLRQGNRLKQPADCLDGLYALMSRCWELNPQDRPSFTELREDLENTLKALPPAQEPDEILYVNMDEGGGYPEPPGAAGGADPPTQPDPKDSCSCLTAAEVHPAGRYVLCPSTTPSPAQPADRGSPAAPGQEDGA
Procedure: as §1, §2, §3, §4, §5

TYRO3 = target: T3, TYRO3 (Homo sapiens, UniProt Q06418); assay: LanthaScreen Eu kinase binding assay, TYRO3; details: Tracer 236
T3 construct: purchased Life Technologies
T3 sequence (Q06418 41-890): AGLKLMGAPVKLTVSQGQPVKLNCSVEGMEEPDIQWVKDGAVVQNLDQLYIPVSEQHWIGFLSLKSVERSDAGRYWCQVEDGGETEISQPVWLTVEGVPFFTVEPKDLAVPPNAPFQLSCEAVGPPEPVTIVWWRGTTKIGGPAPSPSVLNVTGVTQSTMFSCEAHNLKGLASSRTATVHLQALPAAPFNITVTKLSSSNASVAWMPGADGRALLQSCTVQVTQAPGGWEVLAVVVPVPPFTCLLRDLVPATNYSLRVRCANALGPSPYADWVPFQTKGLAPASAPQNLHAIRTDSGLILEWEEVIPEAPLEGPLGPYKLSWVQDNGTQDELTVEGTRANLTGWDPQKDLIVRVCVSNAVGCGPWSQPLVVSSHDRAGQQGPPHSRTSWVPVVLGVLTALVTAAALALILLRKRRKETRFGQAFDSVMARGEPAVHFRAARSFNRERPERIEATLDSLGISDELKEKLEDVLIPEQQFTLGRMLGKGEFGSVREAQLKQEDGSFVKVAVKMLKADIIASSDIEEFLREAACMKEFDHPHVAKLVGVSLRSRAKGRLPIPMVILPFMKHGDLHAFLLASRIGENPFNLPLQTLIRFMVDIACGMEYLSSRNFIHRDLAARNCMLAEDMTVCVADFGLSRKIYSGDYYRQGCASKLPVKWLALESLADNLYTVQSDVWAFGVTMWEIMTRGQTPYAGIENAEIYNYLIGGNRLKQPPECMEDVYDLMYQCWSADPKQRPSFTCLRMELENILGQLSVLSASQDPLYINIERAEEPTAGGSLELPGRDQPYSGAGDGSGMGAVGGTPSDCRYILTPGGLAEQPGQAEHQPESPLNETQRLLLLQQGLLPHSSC
Procedure: as §1, §2, §3, §4, §5

Mer = target: T4, Mer (Homo sapiens, UniProt Q12866); assay: LanthaScreen Eu kinase binding assay, Mer; details: Tracer 236
T4 construct: purchased Life Technologies
T4 sequence (Q12866 21-999): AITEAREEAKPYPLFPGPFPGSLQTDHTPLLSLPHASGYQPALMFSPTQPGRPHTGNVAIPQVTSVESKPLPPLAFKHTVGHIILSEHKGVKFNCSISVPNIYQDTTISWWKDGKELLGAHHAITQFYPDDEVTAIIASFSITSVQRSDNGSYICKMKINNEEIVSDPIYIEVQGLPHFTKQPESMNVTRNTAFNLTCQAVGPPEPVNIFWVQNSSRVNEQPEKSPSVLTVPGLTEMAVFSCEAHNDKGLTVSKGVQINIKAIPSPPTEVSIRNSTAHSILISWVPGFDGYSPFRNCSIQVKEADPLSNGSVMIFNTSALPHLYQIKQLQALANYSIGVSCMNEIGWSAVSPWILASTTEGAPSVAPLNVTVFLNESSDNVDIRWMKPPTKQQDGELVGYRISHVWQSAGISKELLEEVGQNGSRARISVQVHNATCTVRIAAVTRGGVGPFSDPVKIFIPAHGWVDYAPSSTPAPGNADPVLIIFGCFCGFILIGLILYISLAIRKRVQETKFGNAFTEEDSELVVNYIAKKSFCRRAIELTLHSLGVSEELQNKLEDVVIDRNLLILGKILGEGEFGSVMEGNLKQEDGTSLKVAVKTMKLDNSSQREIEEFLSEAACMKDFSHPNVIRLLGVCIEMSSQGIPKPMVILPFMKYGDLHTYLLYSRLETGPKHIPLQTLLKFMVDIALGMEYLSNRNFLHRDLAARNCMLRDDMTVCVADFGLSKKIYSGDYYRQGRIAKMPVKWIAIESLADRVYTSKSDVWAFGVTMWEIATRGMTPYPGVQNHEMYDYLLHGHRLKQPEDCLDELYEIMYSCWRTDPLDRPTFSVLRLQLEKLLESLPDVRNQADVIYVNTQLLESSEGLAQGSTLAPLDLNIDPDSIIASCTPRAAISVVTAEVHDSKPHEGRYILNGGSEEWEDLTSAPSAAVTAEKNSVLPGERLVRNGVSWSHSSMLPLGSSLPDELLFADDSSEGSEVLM
Procedure: as §1, §2, §3, §4, §5

T1 sequence (P08581 25-1390): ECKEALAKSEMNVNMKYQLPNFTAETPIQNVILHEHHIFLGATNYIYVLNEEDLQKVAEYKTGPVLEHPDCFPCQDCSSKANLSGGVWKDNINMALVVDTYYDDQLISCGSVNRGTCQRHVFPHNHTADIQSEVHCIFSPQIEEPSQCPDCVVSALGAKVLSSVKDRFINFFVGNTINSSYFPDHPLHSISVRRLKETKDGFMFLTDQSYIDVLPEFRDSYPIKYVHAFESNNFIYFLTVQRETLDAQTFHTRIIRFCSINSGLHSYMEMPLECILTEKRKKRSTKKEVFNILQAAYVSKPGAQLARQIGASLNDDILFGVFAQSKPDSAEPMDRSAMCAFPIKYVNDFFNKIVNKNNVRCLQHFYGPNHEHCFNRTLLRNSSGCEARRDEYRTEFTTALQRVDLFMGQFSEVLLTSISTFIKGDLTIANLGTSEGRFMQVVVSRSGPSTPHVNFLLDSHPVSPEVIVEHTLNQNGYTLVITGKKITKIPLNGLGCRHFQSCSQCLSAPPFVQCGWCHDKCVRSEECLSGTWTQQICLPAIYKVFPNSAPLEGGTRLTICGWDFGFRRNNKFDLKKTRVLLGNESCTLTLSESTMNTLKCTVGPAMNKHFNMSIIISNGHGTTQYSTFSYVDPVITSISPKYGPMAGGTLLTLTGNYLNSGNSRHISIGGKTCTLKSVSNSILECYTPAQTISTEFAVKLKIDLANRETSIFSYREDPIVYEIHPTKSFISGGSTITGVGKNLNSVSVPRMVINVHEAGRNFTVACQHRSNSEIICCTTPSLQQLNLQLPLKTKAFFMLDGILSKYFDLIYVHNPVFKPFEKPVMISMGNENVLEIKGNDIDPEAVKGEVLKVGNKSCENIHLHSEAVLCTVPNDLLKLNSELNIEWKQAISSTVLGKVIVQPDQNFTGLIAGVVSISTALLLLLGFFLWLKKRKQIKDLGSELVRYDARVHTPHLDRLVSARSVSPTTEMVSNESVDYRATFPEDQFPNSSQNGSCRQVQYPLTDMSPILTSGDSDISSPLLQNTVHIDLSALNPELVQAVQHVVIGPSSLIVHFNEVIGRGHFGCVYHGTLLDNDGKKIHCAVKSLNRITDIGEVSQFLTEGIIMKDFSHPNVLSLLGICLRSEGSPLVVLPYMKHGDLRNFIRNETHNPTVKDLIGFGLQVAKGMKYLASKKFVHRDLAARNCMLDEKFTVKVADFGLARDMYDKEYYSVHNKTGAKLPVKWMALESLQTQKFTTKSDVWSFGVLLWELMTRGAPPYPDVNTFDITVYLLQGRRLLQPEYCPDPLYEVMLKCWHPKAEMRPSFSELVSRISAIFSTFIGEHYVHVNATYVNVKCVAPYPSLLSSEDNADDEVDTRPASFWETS

Structure (SMILES)	Kd (Met) [nM]	Kd (Axl) [nM]	Kd (TYRO3) [nM]	Kd (Mer) [nM]
CCOc1cn(Cc2cccnc2)nc1C(=O)Nc1ccc(Oc2ccnc3cc(OC)c(OC)cc23)cn1 [Compound 83]	< 100	< 100	100 to 1000	< 100
COc1cc2nccc(Oc3ccc(NC(=O)c4nn(-c5ccc(F)cc5-c5ccccc5)cc4OCC4CC4)nc3)c2cc1OC [Compound 275]	100 to 1000	100 to 1000	100 to 1000	100 to 1000
COc1cc2nccc(Oc3ccc(NC(=O)c4nn(-c5cc(F)ccc5Cl)cc4OCC(F)(F)F)nc3)c2cc1OC [Compound 279]	< 100	< 100	< 100	< 100
CCOc1cnn(C2CCNC2)c1C(=O)Nc1ccc(Oc2ccnc3cc(OC)c(OC)cc23)cn1 (stereo not shown) [Compound 71]	100 to 1000	≥ 1000	≥ 1000	100 to 1000
CCOc1cn(-c2ccc(F)cc2C)nc1C(=O)Nc1ccc(Oc2ccnc3cc(OC)c(OC)cc23)cc1C(F)(F)F [Compound 109]	100 to 1000	100 to 1000	≥ 1000	≥ 1000
CCOc1cn(-c2cncnc2OC)nc1C(=O)Nc1ccc(Oc2ccnc3cc(OC)c(OC)cc23)cn1 [Compound 175]	< 100	< 100	< 100	< 100
CCOc1cnn(C2CCOC2)c1C(=O)Nc1ccc(Oc2ccnc3cc(OC)c(OC)cc23)cn1 (stereo not shown) [Compound 77]	100 to 1000	100 to 1000	100 to 1000	< 100
CCOc1cn(-c2cnccn2)nc1C(=O)NC1CC(Oc2ccnc3cc(OC)c(OC)cc23)C1 (stereo not shown) [Compound 204]	100 to 1000	≥ 1000	≥ 1000	100 to 1000
CCOc1cnn(Cc2cccnc2)c1C(=O)Nc1ccc(Oc2ccnc3cc(OC)c(OC)cc23)cn1 [Compound 84]	< 100	100 to 1000	≥ 1000	< 100
CCOc1cn(CC2CCCN(C)C2)nc1C(=O)Nc1ccc(Oc2ccnc3cc(OC)c(OC)cc23)cc1F (stereo not shown) [Compound 214]	100 to 1000	100 to 1000	100 to 1000	100 to 1000
CCOc1cnn(-c2ccc(C#N)nc2)c1C(=O)Nc1ccc(Oc2ccnc3cc(OC)c(OC)cc23)cn1 [Compound 53]	≥ 1000	≥ 1000	≥ 1000	≥ 1000
CCOc1cn(CC2CCNCC2)nc1C(=O)Nc1ccc(Oc2ccnc3cc(OC)c(OC)cc23)cc1F [Compound 218]	100 to 1000	100 to 1000	100 to 1000	100 to 1000
CCOc1cn(-c2ncc(Cl)cc2CN(C)C)nc1C(=O)Nc1ccc(Oc2ccnc3cc(OC)c(OC)cc23)cn1 [Compound 138]	< 100	100 to 1000	100 to 1000	< 100
CCOc1cn(C2CCN(C)C2)nc1C(=O)Nc1ccc(Oc2ccnc3cc(OC)c(OC)cc23)cn1 (stereo not shown) [Compound 74]	100 to 1000	100 to 1000	100 to 1000	< 100
CCOc1cnn(CCN(C)C)c1C(=O)Nc1ccc(Oc2ccnc3cc(OC)c(OC)cc23)cn1 [Compound 52]	≥ 1000	≥ 1000	≥ 1000	≥ 1000
CCOc1cn(CCO)nc1C(=O)Nc1ccc(Oc2ccnc3cc(OC)c(OC)cc23)cn1 [Compound 70]	100 to 1000	100 to 1000	100 to 1000	< 100
CCOc1cn(-c2ccc(F)cc2C)nc1C(=O)Nc1csc(Oc2ccnc3cc(OC)c(OC)cc23)n1 [Compound 122]	≥ 1000	≥ 1000	≥ 1000	≥ 1000
CCOc1nn(-c2ccc(F)cc2C)cc1C(=O)Nc1ccc(Oc2ccnc3cc(OC)c(OC)cc23)c(F)c1 [Compound 277]	≥ 1000	≥ 1000	< 100	100 to 1000
CCOc1cnn(-c2ccc(C(C)(C)C)cc2)c1C(=O)Nc1ccc(Oc2ccnc3cc(OC)c(OC)cc23)cn1 [Compound 123]	100 to 1000	100 to 1000	≥ 1000	100 to 1000
CCOc1cn(-c2ncccc2CN(C)C)nc1C(=O)Nc1ccc(Oc2ccnc3cc(OC)c(OC)cc23)cn1 [Compound 142]	< 100	100 to 1000	100 to 1000	< 100
CCOc1cn(CC(=O)O)nc1C(=O)Nc1ccc(Oc2ccnc3cc(OC)c(OC)cc23)cn1 [Compound 62]	≥ 1000	100 to 1000	≥ 1000	< 100
CCOc1cn(-c2c(CN(C)C)ccnc2C)nc1C(=O)Nc1ccc(Oc2ccnc3cc(OC)c(OC)cc23)cn1 [Compound 131]	100 to 1000	100 to 1000	≥ 1000	100 to 1000
